ChEMBL document CHEMBL3233007, “Prenylated coumarins: natural phosphodiesterase-4 inhibitors from Toddalia asiatica” (J Nat Prod, 2014)
pIC50: −log10 of the molar value.

These molecules were tested against 3',5'-cyclic-AMP phosphodiesterase 4D (Homo sapiens, UniProt Q08499) (assay: Inhibition of human PDE4D2 catalytic domain (86 to 413aa) expressed in Escherichia coli strain BL21 after 15 mins by liquid scintillation counting in presence of [3H]-cAMP).
Chain of 3',5'-cyclic-AMP phosphodiesterase 4D (Q08499 whole entry, the tested form may be a part): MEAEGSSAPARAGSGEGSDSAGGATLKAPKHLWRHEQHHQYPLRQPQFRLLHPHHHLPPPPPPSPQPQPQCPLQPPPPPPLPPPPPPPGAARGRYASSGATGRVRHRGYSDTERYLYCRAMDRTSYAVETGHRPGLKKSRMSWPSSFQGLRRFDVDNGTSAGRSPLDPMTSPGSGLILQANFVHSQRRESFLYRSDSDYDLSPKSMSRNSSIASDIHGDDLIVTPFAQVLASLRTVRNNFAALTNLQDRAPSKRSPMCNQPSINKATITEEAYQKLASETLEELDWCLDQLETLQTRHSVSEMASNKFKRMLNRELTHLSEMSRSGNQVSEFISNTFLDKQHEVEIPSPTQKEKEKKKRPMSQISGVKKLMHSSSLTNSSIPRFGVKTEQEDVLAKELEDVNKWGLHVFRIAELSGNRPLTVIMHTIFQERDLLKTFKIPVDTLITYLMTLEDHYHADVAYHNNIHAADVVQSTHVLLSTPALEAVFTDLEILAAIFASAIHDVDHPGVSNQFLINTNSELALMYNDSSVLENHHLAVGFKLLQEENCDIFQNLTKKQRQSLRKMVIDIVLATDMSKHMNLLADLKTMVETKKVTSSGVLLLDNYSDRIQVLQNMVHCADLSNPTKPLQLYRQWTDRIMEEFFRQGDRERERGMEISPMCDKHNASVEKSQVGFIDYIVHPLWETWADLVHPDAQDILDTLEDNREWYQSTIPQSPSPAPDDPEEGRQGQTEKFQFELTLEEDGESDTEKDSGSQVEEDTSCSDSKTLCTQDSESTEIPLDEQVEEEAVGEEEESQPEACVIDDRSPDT

| pIC50 | Compound |
| --- | --- |
| 5.00 | COc1cc2oc(=O)ccc2c(OC)c1CC=C(C)C |
| 5.66 | COc1cc2c(c3oc(=O)ccc13)CCC(C)(C)O2 |
| 4.78 | COc1cc2oc(=O)ccc2c(OC)c1C[C@H](OC(=O)[C@]1(O)C[C@@H](O)[C@@H](O)[C@H](OC(=O)/C=C/c2ccc(O)c(O)c2)C1)C(C)(C)O |
| 5.73 | COc1cc2c(c3oc(=O)ccc13)C=CC(C)(C)O2 |
| 5.82 | COc1cc2ccc(=O)oc2c2c1OC(C)(C)CC2 |
| 6.85 | COc1cc(OC)c2ccc(=O)oc2c1/C=C/[C@H]1C[C@@H](C=C(C)C)c2c(c3ccccc3n(C)c2=O)O1 |
| 4.94 | COc1cc2oc(=O)ccc2c(OC)c1CCC(C)C |
| 5.26 | COC1=CC(=O)c2cc(C)cc(-c3c(OC)cc(OC)c4ccc(=O)oc34)c2C1=O |
| 5.62 | CC1(C)C=Cc2c(c(O)cc3ccc(=O)oc23)O1 |
| 4.99 | COc1cc(OC)c2ccc(=O)oc2c1CCC(C)C |
| 5.11 | COc1cc(O)c(/C=C/C(=O)O[C@@H](Cc2c(OC)cc3oc(=O)ccc3c2OC)C(C)(C)O)c(OC)c1CC=C(C)C |
| 5.17 | COc1cc(OC)c2ccc(=O)oc2c1CC=C(C)C |
